Assay results published in patent US20060293228A1, “Therapeutic compositions and methods using transforming growth factor-beta mimics” (priority 2005, published 2006).
Where a SMILES comes first, the peptide text is derived from it. Where no end group is shown, it is not given here.

Tests used:
[1] = system: Mv-1-Lu mink lung epithelial cells; experiment: Inhibition of DNA synthesis (3H-thymidine incorporation) of Mv-1-Lu mink lung epithelial cells; type: cell-based; conditions: cytomodulin at the same concentration
Description: The effect of TGF-β and cytomodulin were evaluated by determining the rate of [1H]thymidine incorporation into total acid-insoluble DNA and cell number. See generally, Sampath et al., J. Biol. Chem., 267, pp. 20352-20362 (1992). DNA synthesis rates were determined in triplicate cultures after 24 hour treatment with various concentrations (10^-9 M to 10^-6 M) of either TGF-β or cytomodulin (which was synthesized by the Merrifield method) by adding [methyl-3H]thymidine (2 uCi/ml, 80 Ci/mmol) for 6 hours before the termination of the culture. Incorporation was terminated by aspiration of the medium, and after washing three times with phosphate-buffered saline, the trichloroacetic acid (10%)-precipitated radioactive DNA was extracted with 1.0% (w/v) sodium dodecyl sulfate, 0.1 M NaOH and quantitated by liquid scintillation counting. For cell number determination, 1×10^5 cells were plated in flasks in MEM containing 10% FBS, and after 24 hours, the growth medium was replaced with serum-free medium containing various conceptions of TGF-β and cytomodulin. Triplicate cultures were harvested every 24 hours for the duration of 7 days, and the cell number was determined by counting cells released by trypsin digestion in a fixed volume hemacytometer.
The numbers shown at the various concentration are the ratio of the inhibition rate of the peptide being tested over the inhibition rate of cytomodulin (SEQ ID NO: 1) at the same concentration.

NRK-49 F fibroblasts = experiment: Growth and colony formation by NRK-49 F fibroblasts in soft agar; type: cell-based
Description: The original assay for TGF-β, the ability to promote anchorage independent growth of normal fibroblasts is still one of the hallmarks of TGF-β activity. NRK49 F fibroblasts were grown at 37° C. in DEM supplemented with 10% fetal calf serum. […] To this, either 100 nM TGF-β (positive control) or 100 nM cytomodulin was added. NRK49 F fibroblasts (5×10^4 cells/ml) were mixed with 0.3% agar were plated on the bottom of 35 mm culture dishes. Colony formation was observed starting on day 3 of culture.

insect bite = system: insect bite; design: species or system human; conditions: in vivo
Excerpt: A person reported that they were very allergic to insect bites, which usually made a large red welt, then turned purple and looked like a severe bruise, lasting for about a week.

[2] = system: contact dermatitis on both hands; design: species or system human; conditions: in vivo
Excerpt: A person had suffered from contact dermatitis on both hands for approximately 5 to 6 years. Signs of dermatitis, such as rash, itching, crustiness, thin skin (steroids) when flexed hand would start bleeding where lines, were apparent over approximately 100 cm^2 of the right and left hands, respectively (all of palm and fingers). The individual applied a lotion comprising cytomodulin (SEQ ID NO: 1) at a concentration of about approximately 0.01% once per day at night. The amount applied was about 0.25 ml per hand. After 3-4 days healing of the dermatitis was apparent. In approximately two weeks the dermatitis was completely healed.

Compound	Inhib by new peptide/Inhib by cytomodulin (3H-thymidine incorporation) ([1]; 10 nM)	Inhib by new peptide/Inhib by cytomodulin (3H-thymidine incorporation) ([1]; 100 nM)	Inhib by new peptide/Inhib by cytomodulin (3H-thymidine incorporation) ([1]; 1 nM)	Inhib by new peptide/Inhib by cytomodulin (3H-thymidine incorporation) ([1]; 1000 nM)	growth and colony formation of NRK-49 F cells in soft agar (in words) (NRK-49 F fibroblasts)	adverse effects (insect bite)	negative effects of application of the lotion [2]
A-N-V-A-E-K (ANVAEK) [SEQ ID NO: 15]	0.80	1.00					
L-I-A-K-G-K (LIAKGK) [SEQ ID NO: 16]	0.65	0.67					
L-I-A-G-G-E (LIAGGE) [SEQ ID NO: 13]	1.33	1.45	1.10	1.90			
L-I-A-G-E-G (LIAGEG) [SEQ ID NO: 14]	0.85	1.41	0.66	1.88			
LIAEAK [L2]					promoted the growth		
LIAPEA [L1]					promoted the growth		
L-I-A-Q-A-K (LIAQAK) [SEQ ID NO: 12]	1.10	0.80	0.90	1.56			
L-I-A-N-A-K (LIANAK) [SEQ ID NO: 10]	2.00	1.43	1.70	3.05			
L-I-A-E-A-A (LIAEAA) [SEQ ID NO: 11]	1.00	1.17	1.16	1.85			
CC(C)[C@H](NC(=O)[C@H](CC(N)=O)NC(=O)[C@H](C)N)C(=O)N[C@@H](C)C(=O)N[C@@H](CCC(=O)O)C(=O)N[C@@H](CC(N)=O)C(=O)N[C@@H](C)C(=O)O [cytomodulin, Ala-Asn-Val-Ala-Glu-Asn-Ala] (H-ANVAENA-OH)						no adverse effects	No negative effects
L-I-A-D-A-K (LIADAK) [SEQ ID NO: 9]	0.87	1.14	0.45	1.25			
